Measurements published in paper PMC9837764 (Nature Communications, 2023).
Values joined by “and” are separate entries in the source; they are usually repeats but may differ in a detail not shown here. Identical values can stand only once.

Experiments:
[1] = system: mouse bone marrow erythrocytes; conditions: Positive Control 25 mg/Kg i.p.
SARS-CoV-2 [2] = test: Combination of RdRp inhibitors with SARS-CoV-2 nsp14 inhibitors in infected Calu-3 cells, synergy; format: cell-based; parameters: EC99 mean: unit not given here; conditions: for Response (Fig3C source data for synergy analysis): MB-905 0 nM; for EC50: Severe acute respiratory syndrome coronavirus 2, Calu-3, read-out: EC50 mean
[3] = human, in vivo; cited from earlier work
IL-6 = IL-6 in supernatant of SARS-CoV-2-infected human primary monocytes; format: cell-based; conditions: infected monocytes, drugs at 10 µM, 24 h
Method: (§1) Human primary monocytes were obtained after 3 h of plastic adherence of peripheral blood mononuclear cells (PBMCs). The use of primary human cell was approved by Institutional Review Board from the Oswaldo Cruz Foundation under protocol 49971421.8.0000.5248 with signed informed consent in accordance with the Hemotherapy Service of Hospital Clementino Fraga from the Federal University of Rio de Janeiro. All volunteers were de-identified. PBMCs were isolated from healthy donors by density gradient centrifugation (Ficoll-Paque, GE Healthcare). PBMCs (2.0 × 10^6 cells) were plated onto 48-well plates (NalgeNunc) in RPMI-1640 without serum for 2–4 h. Nonadherent cells were removed, and the remaining monocytes were maintained in DMEM with 5% human serum (HS; Millipore) and penicillin/streptomycin. The purity of human monocytes was above 95%, as determined by flow cytometric analysis (FACScan; Becton Dickinson) using anti-CD3 (BD Biosciences, cat # 555342, 1:40), anti-CD16 (Southern Biotech, cat # 561313, 1:20) and APC mouse IgG2a isotype (BD Biosciences, cat # 550882, 1/40) and PE mouse IgG1 isotype (BD Biosciences, 555749, 1/20).

SARS-CoV-2 [4] = test: Genomic and subgenomic viral RNA in infected Calu-3 cells (RT-PCR); format: cell-based; conditions: Calu-3, 10 µM, 48 h
SARS-CoV-2 [5] = test: Cell-associated virus RNA in SARS-CoV-2-infected human primary monocytes; format: cell-based; conditions: for Cell-associated virus RNA levels in SARS-CoV-2-infected monocytes: Fig. 1c; for Cell-associated virus RNA loads, inhibition (Fig1C source data, per donor): monocytes
Method: as §1
Total viral RNA from a culture supernatant and/or monolayers was extracted using QIAamp Viral RNA (Qiagen®) according to the manufacturer’s instructions. Quantitative RT‒PCR was performed using GoTaq® Probe qPCR and RT-qPCR Systems (Promega) in a StepOne™ Real-Time PCR System (Thermo Fisher Scientific) ABI PRISM 7500 Sequence Detection System (Applied Biosystems). Amplifications were carried out in 25 µL reaction mixtures containing 2× reaction mix buffer, […] of each primer, 10 µM of probe, and 5 µL of RNA template. Primers, probes, and cycling conditions recommended by the Centers for Disease Control and Prevention (CDC) protocol were used to detect SARS-CoV-2[52]. The standard curve method was employed for virus quantification. For reference to the cell amounts used, the housekeeping gene RNAse P (F-5′-[…] -3′, R-5′[…] -3′, P-5′-FAM-[…] -BHQ-1-3′) was amplified. The Ct values for this target were compared to those obtained for different cell amounts, 10^7 to 10^2, for calibration.

TNF-α = TNF-α in supernatant of SARS-CoV-2-infected human primary monocytes; format: cell-based; conditions: infected monocytes, drugs at 10 µM, 24 h
Method: as §1

Calu-3 cells = conditions: human
Method: (§2) Monolayers of 1.5 × 10^4 cells in 96-well plates were treated for 3 days with various concentrations (semilog dilutions from 1000 to 10 µM) of the antiviral drugs. Then, 5 mg/ml 2,3-bis-(2-methoxy-4-nitro-5-sulfophenyl)−2H-tetrazolium-5-carboxanilide (XTT) in DMEM was added to the cells in the presence of 0.01% N-methyl dibenzopyrazine methyl sulfate (PMS).

SARS-CoV-2 [6] = test: Yield-reduction assay, SARS-CoV-2 in Calu-3 cells (titers as PFU/mL in Vero cells); conditions: for Inhibition of SARS-CoV-2 infectious titers (Fig1B source data, replicates): additional treatment at 24 h; for Inhibition of SARS-CoV-2 infectious titers (Fig1A source data, replicates): one treatment
in vitro = conditions: human
Method: as §2

Human primary monocytes = test: Monocyte viability (LDH in supernatant); format: cell-based; conditions: 10 µM
From the text: Cellular Viability (%) Remdesivir
Supplementary Fig. 3. Citotoxicity of the compounds.
DMEM containing 2% fetal bovine serum.
Monocytes at a density of 1.5

[7] = infected Calu-3, compound alone at 10 uM
[8] = Severe acute respiratory syndrome coronavirus 2, Calu-3
[9] = Severe acute respiratory syndrome coronavirus 2, Calu-3, 24 h
[10] = Drug 0.001, Calu-3, MOI 0.1, 48 h

| SMILES | EC50 (SARS-CoV-2 [2]) | Cell-associated virus RNA levels in SARS-CoV-2-infected monocytes (SARS-CoV-2 [5]) | Cell-associated virus RNA loads, inhibition (Fig1C source data, per donor) (SARS-CoV-2 [5]; 24 h, Drug 1) | Cell-associated virus RNA loads, inhibition (Fig1C source data, per donor) (SARS-CoV-2 [5]; 24 h, Drug 10) | Cell-associated virus RNA loads, inhibition (Fig1C source data, per donor) (SARS-CoV-2 [5]; MOI 0.1, 24 h, Drug 0.1) | CC50 (Calu-3 cells) | EC50 (SARS-CoV-2 [6]; [8]) | EC50 (SARS-CoV-2 [6]; [9]) | Inhibition of SARS-CoV-2 infectious titers (Fig1A source data, replicates) (SARS-CoV-2 [6]; [10]) | Inhibition of SARS-CoV-2 infectious titers (Fig1A source data, replicates) (SARS-CoV-2 [6]; Drug 0.01) | Inhibition of SARS-CoV-2 infectious titers (Fig1A source data, replicates) (SARS-CoV-2 [6]; Drug 0.1) | Inhibition of SARS-CoV-2 infectious titers (Fig1A source data, replicates) (SARS-CoV-2 [6]; Drug 1) | Inhibition of SARS-CoV-2 infectious titers (Fig1A source data, replicates) (SARS-CoV-2 [6]; Drug 10) | CC50 (in vitro) | further results |
| --- | --- | --- | --- | --- | --- | --- | --- | --- | --- | --- | --- | --- | --- | --- | --- |
| O=P1(N(CCCl)CCCl)NCCCO1 (stereo not shown) [Cyclophosphamide, reference compound] | – | – | – | – | – | – | – | – | – | – | – | – | – | – | MNPCE/4,000 PCE (Mean ± S.D.) [1]: 16.20 ± 6.03; Ratio PCE/NCE (Mean ± S.D.) [1]: 1.44 ± 0.29 |
| C[C@@H]1CCO[C@H]2Cn3cc(C(=O)NCc4ccc(F)cc4F)c(=O)c(O)c3C(=O)N12 [DTG, dolutegravir] | 5.3 µM | – | – | – | – | – | – | – | – | – | – | – | – | – | Response (Fig3C source data for synergy analysis) (SARS-CoV-2 [2]; DTG 1000 nM): 14; Response (Fig3C source data for synergy analysis) (SARS-CoV-2 [2]; DTG 5000 nM): 53; Response (Fig3C source data for synergy analysis) (SARS-CoV-2 [2]; DTG 10000 nM): 74; Response (Fig3C source data for synergy analysis) (SARS-CoV-2 [2]; DTG 15000 nM): 75; Effects on SARS-CoV-2 replication (SARS-CoV-2 [2]; alone at 5 µM, Calu-3): marginal effects; Virus productive titers (Fig3B source data, replicates) (SARS-CoV-2 [2]; infected Calu-3, DTG alone at 5uM): 224000 and 448000; Cmax [3]: 15 µM; Plasma concentration at Cmin [3]: 1.5 µM |
| OC[C@H]1O[C@@H](n2cnc3c(NCc4ccco4)ncnc32)[C@H](O)[C@@H]1O [MB-801, Kinetin riboside] | – | reduced cell-associated virus RNA levels in a concentration-dependent manner | 36 and 65 and 10 and 20 and 30 and 40 | 33 and 76 and 10 and 20 and 30 and 36 | 17 and 66 and 24 and 12 and 9 and 25 | 530 ± 65 µM | 0.18 ± 0.02 µM | 0.02 ± 0.003 µM | 2 and 4 and 5 | 27 and 20 and 32 | 40 and 53 and 50 | 63 and 67 and 57 | 95 and 94 and 72 | 550 ± 32 µM | Virus productive titers (Fig3A source data, replicates) (SARS-CoV-2 [2]; [7]): 32000 and 36000 and 38000; Virus productive titers (Fig3B source data, replicates) (SARS-CoV-2 [2]; [7]): 32000 and 36000 and 38000; IL-6 levels in the culture supernatant (Fig1E source data, per donor) (IL-6): 2.2 and 1.8 and 0.121 and 4.3 and 3.4 and 0.355 and 1.5 and 2.9; Genomic viral RNA (Fig2B source data, replicates) (SARS-CoV-2 [4]): 0.3 and 0.1 and 0.22; Subgenomic viral RNA (Fig2B source data, replicates) (SARS-CoV-2 [4]): 0.5 and 0.45 and 0.56; TNF-α levels in the culture supernatant (Fig1D source data, per donor) (TNF-α): 1.6 and 1.8 and 0.638 and 4.1 and 2.6; Inhibition of SARS-CoV-2 infectious titers (Fig1B source data, replicates) (SARS-CoV-2 [6]; Drug 0.001, Calu-3, 48 h): 18 and 20 and 16; Inhibition of SARS-CoV-2 infectious titers (Fig1B source data, replicates) (SARS-CoV-2 [6]; Drug 0.01): 39 and 40 and 54; Inhibition of SARS-CoV-2 infectious titers (Fig1B source data, replicates) (SARS-CoV-2 [6]; Drug 0.1): 62 and 60 and 58; Inhibition of SARS-CoV-2 infectious titers (Fig1B source data, replicates) (SARS-CoV-2 [6]; Drug 1): 81 and 86 and 58; Inhibition of SARS-CoV-2 infectious titers (Fig1B source data, replicates) (SARS-CoV-2 [6]; Drug 10): 98 (2×) and 99 |
| CC(C)C(=O)OC[C@H]1O[C@@H](n2ccc(NO)nc2=O)[C@H](O)[C@@H]1O [MK-4482, molnupiravir, reference compound] | 0.8 µM | relatively low activity | 25 (2×) and 23 | 1 | 12 (2×) and 18 | 53 ± 12 µM | 0.72 ± 0.12 µM | 0.02 ± 0.008 µM | 3 and 4 and 5 | 13 and 6 and 16 | 48 and 30 and 35 | 71 and 60 and 50 | 100 and 99 and 95 | 58 ± 18 µM | EC99 mean (SARS-CoV-2 [2]; Calu-3 cells, alone or with nsp14 inhibitor at the concentration of the label, unit not given): 9; EC90 (SARS-CoV-2 [2]; Severe acute respiratory syndrome coronavirus 2, Calu-3, read-out: EC90 mean): 7 µM; Monocyte viability (Human primary monocytes): drastically reduced |
